Data on one compound can be found in patent publication US8697684B2, “Azetidinyl diamides as monoacylglycerol lipase inhibitors” (Janssen Pharmaceutica NV, priority 2009, dated 2014).

The subject of the assay is rat. Put plainly: CFA-Induced Paw Radiant Heat Hypersensitivity. The format is in vivo. The conditions noted are these: CFA thermal hypersensitivity, 30 mg/kg p.o., HPβCD, group mean values, last time point 180 or 300 min. How it is done: Each rat was placed in a test chamber on a warm glass surface and allowed to acclimate for approximately 10 min. A radiant thermal stimulus (beam of light) was then focused through the glass onto the plantar surface of each hind paw in turn. The thermal stimulus was automatically shut off by a photoelectric relay when the paw was moved or when the cut-off time was reached (20 sec for radiant heat at ˜5 amps). An initial (baseline) response latency to the thermal stimulus was recorded for each animal prior to the injection of complete Freund's adjuvant (CFA). 24 h following intraplantar CFA injection, the response latency of the animal to the thermal stimulus was then re-evaluated and compared to the animal's baseline response time. […] Post-compound treatment withdrawal latencies were assessed at fixed time intervals, typically 30, 60, 120, 180, and 300 min.
The percent reversal (% R) of hypersensitivity was calculated in one of two different ways: 1) using group mean values or 2) using individual animal values. […]
Method 1. For all compounds, the % R of hypersensitivity was calculated using the mean value for groups of animals at each time point according to the following formula: % reversal=[(group treatment response−group CFA response)/(group baseline response−group CFA response)]×100 Results are given for the maximum % reversal observed for each compound at any time point tested. […]

Regarding `O=C(c1ccc(-c2cccc(C(F)(F)F)c2)c(Cl)c1)N1CC(N2CCN(C(=O)c3cscn3)CC2)C1` [Cpd 1102], the “Method 1: peak % reversal” value is 38%.
